Source: article PMC6513986, “Molecular basis for heat desensitization of TRPV1 ion channels” (Nature Communications, 2019)
Ends that are not written are not given here.

Key:
[1] = tested on: TRPV1; details: cited from earlier work
Excerpt: To further corroborate our findings in FRET experiments of heat-desensitized channels, we took an alternative experimental strategy where we measured the changes in FRET induced by centipede toxin RhTx. […] Thus, we believe that the prolonged application of RhTx mimicked the effect ... || Based on the site-specific structural dynamics information, we computationally modeled the three-dimensional structure of mV1 in the Dh state. The blue shift in ANAP emission indicated a transition into a more hydrophobic environment at the 630 site, which provided an experimentally derived constraint for structural modeling using a recently published approach. As the heat-activated state of TRPV1 channels has not been resolved, we employed the double-knot toxin-bound state determined by cryo-EM (PDB ID: 3J5Q)[20] as the open state model, because a previous study had shown that Redhead tox ... || To model the heat-induced desensitized state of TRPV1, membrane-symmetry-loop modeling was performed using the Rosetta molecular modeling suite[41] version 2015.25. […] The selectivity filter, the pre S6 linker, and the S1–S2 linker were modeled de novo with the kinematic (KIC) loop modeling protocol[42],[43]. Ten th ... || (+ 1 further places)

[2] = biological target: T1, mV1 (Mus musculus, UniProt Q704Y3); test: Inhibition of Dh of mV1 by C-terminal peptides or co-expressed C terminus, whole-cell; format: cell-based; set-up: Tau values: unit not given here; details: for Id/Imax / Tau values: Supplementary figure 1e
T1 construct: expressed in transfected cells; host or cells: HEK293T
Excerpt: To generate the mC plasmid, the pEGFP-N1 vector enzyme cutting sites by HindIII and EcoRI were made by QuickCut Hind III and QuickCut EcoR I. The primer pair (5′- […]-3′ and 5′- […]-3′) for mouse TRPV1 was generated. pEGFP-N1 enzyme digestion vector and mouse TRPV1 PCR fragment were used for homologous recombination.
The pC plasmid was generated by the primer pair (5′-[…]-3′ and 5′-[…]-3′) and the homologous recombination between the pEGFP-N1 enzyme digestion vector and platypus TRPV1 PCR fragment were used.
The C-terminal peptides were synthesized[26] as the following sequences:
Random peptide: […]
(§1) All recordings were performed at room temperature.
(§2) Temperature control was achieved by perfusion of preheated or precooled solutions. Solutions were heated with an SHM-828 eight-line heater controlled by a CL-100 temperature controller (Harvard Apparatus). A custom-made manifold was attached to the output ports of the heater to deliver solutions to the recording chamber and provide heat insulation. Solutions were cooled by embedding the solution reservoirs in ice water and then perfused through a separate line. The patch pipette was placed about 1 mm from the solution output ports. A TA-29 miniature bead thermistor (Harvard Apparatus) was placed right next to the pipette, to ensure accurate monitoring of local temperature. The thermistor’s temperature readout was fed into an analog input of the patch amplifier and recorded simultaneously with current. With this method, we achieved rapid and reliable temperature changes.

[3] = biological target: T2, N-terminal region of mV1 (mN region, 1M-433R) (Mus musculus, UniProt Q704Y3); test: SPR, N-terminal region of mV1 immobilized; format: binding; details: 47.6 to 95.2 μM, 15 °C
T2 construct: N-terminal region of mV1 (mN region, 1M-433R)
Protocol: Note that the desensitization of mV1 occurs before cooling starts. Amplitude ratio (n = 7, two-sided t-test: *p < 0.01) between desensitized currents (Id) and maximum currents (Imax) induced by heat at 45 °C (right panel). c Superimposed representative temperature–response relationships of heat-evoked currents in HEK293T cells transiently transfected with pV1 and mV1. d Chimeric channels were generated between mV1 (gray) and pV1 (yellow) on the basis of the location of transmembrane domains. […] Channel plasmid was co-expressed with C-terminal region of pV1 (pC, 701N-851E) or mV1 (mC, 688N-839K). g Example current induced by a temperature ramp recorded from whole-cell patches with 1 mM mV1 C-terminal peptide (mC peptide) or random peptide in the pipette solution. h The mC peptide was perfused over an SPR sensor coated with the N-terminal region of mV1 (mN region, 1M-433R) at 15 or 35 °C (left and middle panels). The mC peptide in 95.2 μM was perfused over an SPR sensor coated with mN region at 15, 30, 33, and 35 °C (right panel). i Significant concentration and temperaturedependence of the interaction between N and C termini (n = 6, two-sided t-test: *p < 0.01). All statistical data are given as mean ± SEM. Source data are provided as a Source data file […]

[4] = tested on: mV1, pV1 and mutants; test: Heat-induced desensitization (Dh): Id/Imax and tau, patch clamp; format: cell-based, mouse; platypus; details: Figure 2g
Protocol: as §1, §2

[5] = biological target: T3, N-terminal region of mV1 (mN region, 1M-433R) (mouse, UniProt Q704Y3 1-433); test: SPR; mN region (1M-433R) immobilised on the sensor chip, mC peptide (30 aa) perfused at 47.6 and 95.2 uM; 35 °C ('high temperature'); details: both partners purified
T3 construct: mouse TRPV1 (mV1), N-terminal region, residues 1M-433R; In the functional rows the N terminus stood within the whole mV1 channel in HEK293T cells; also called N-terminal peptides; N terminus of mV1

[6] = biological target: T3, N-terminal region of mV1 (mN region, …); test: SPR; mN region (1M-433R) immobilised on the sensor chip, mC peptide (30 aa) perfused at 47.6 and 95.2 uM; 15 °C ('low temperature'); details: both partners purified
[7] = Id/Imax_Average of 6 replicates, SD and SEM in columns of their own
[8] = Tau values_Average of 6 replicates, SD and SEM in columns of their own

C=C(C)[C@]12C[C@@H](C)[C@@]34O[C@](Cc5ccccc5)(O[C@@H]1[C@@H]3C=C(COC(=O)Cc1ccc(O)c(OC)c1)C[C@]1(O)C(=O)C(C)=C[C@@H]41)O2 [RTX]
activation through heat activation pathway [1]: activated the channel through heat activation pathway

GSLKPEDAEVFKDSMAPGEK [Pep_20, C-terminal peptide]
Id/Imax [2, 7]: 0.596 | Tau values [2, 8]: 29.8 | Id/Imax ([2]; replicate 1): 0.486 | Tau values ([2]; replicate 1): 23.5 | Id/Imax ([2]; replicate 2): 0.667 | Tau values ([2]; replicate 2): 38.3 | Id/Imax ([2]; replicate 3): 0.715 | Tau values ([2]; replicate 3): 20.7 | Id/Imax ([2]; replicate 4): 0.612 | Tau values ([2]; replicate 4): 24.4 | Id/Imax ([2]; replicate 5): 0.567 | Tau values ([2]; replicate 5): 39.6 | Id/Imax ([2]; replicate 6): 0.529 | Tau values ([2]; replicate 6): 32.3

LKHYTGSLKPEDAEVFKDSMAPGEK [Pep_25, C-terminal peptide]
Id/Imax [2, 7]: 0.403 | Tau values [2, 8]: 59.5 | Id/Imax ([2]; replicate 1): 0.318 | Tau values ([2]; replicate 1): 43.8 | Id/Imax ([2]; replicate 2): 0.509 | Tau values ([2]; replicate 2): 73 | Id/Imax ([2]; replicate 3): 0.427 | Tau values ([2]; replicate 3): 60.4 | Id/Imax ([2]; replicate 4): 0.384 | Tau values ([2]; replicate 4): 48.3 | Id/Imax ([2]; replicate 5): 0.367 | Tau values ([2]; replicate 5): 52 | Id/Imax ([2]; replicate 6): 0.413 | Tau values ([2]; replicate 6): 79.5

PEEVQLKHYTGSLKPEDAEVFKDSMAPGEK [mC peptide]
increase in SPR response [3]: 162%

QVEEPTYHKLPKLSGVEADEMSDKFKEGPM [Random peptide]
inhibition of Dh of mV1 ([2]; 1 mM peptide in pipette solution, whole-cell): failed to inhibit Dh

B1: DkTx: peptide toxin, double-knot toxin (peptide, UniProt P0CH43 1-79, looked up)
Tau-theraphotoxin-Hs1a: DCAKEGEVCSWGKKCCDLDNFYCPMEFIPHCKKYKPYVPVTTNCAKEGEVCGWGSKCCHGLDCPLAFIPYCEKYRGRND
activation through heat activation pathway [1]: activated the channel through heat activation pathway | mimicry of heat activation [1]: mimic heat activation of TRPV1

B2: mV1 (protein, UniProt Q704Y3 1-839, looked up)
Transient receptor potential …: MEKWASLDSDESEPPAQENSCPDPPDRDPNSKPPPAKPHIFATRSRTRLFGKGDSEEASPMDCPYEEGGLASCPIITVSSVVTLQRSVDGPTCLRQTSQDSVSTGVETPPRLYDRRSIFDAVAQSNCQELESLLSFLQKSKKRLTDSEFKDPETGKTCLLKAMLNLHNGQNDTIALLLDIARKTDSLKQFVNASYTDSYYKGQTALHIAIERRNMALVTLLVENGADVQAAANGDFFKKTKGRPGFYFGELPLSLAACTNQLAIVKFLLQNSWQPADISARDSVGNTVLHALVEVADNTADNTKFVTNMYNEILILGAKLHPTLKLEELTNKKGLTPLALAASSGKIGVLAYILQREIHEPECRHLSRKFTEWAYGPVHSSLYDLSCIDTCEKNSVLEVIAYSSSETPNRHDMLLVEPLNRLLQDKWDRFVKRIFYFNFFVYCLYMIIFTTAAYYRPVEGLPPYKLNNTVGDYFRVTGEILSVSGGVYFFFRGIQYFLQRRPSLKSLFVDSYSEILFFVQSLFMLVSVVLYFSHRKEYVASMVFSLAMGWTNMLYYTRGFQQMGIYAVMIEKMILRDLCRFMFVYLVFLFGFSTAVVTLIEDGKNNSLPVESPPHKCRGSACRPGNSYNSLYSTCLELFKFTIGMGDLEFTENYDFKAVFIILLLAYVILTYILLLNMLIALMGETVNKIAQESKNIWKLQRAITILDTEKSFLKCMRKAFRSGKLLQVGFTPDGKDDFRWCFRVDEVNWTTWNTNVGIINEDPGNCEGVKRTLSFSLRSGRVSGRNWKNFALVPLLRDASTRDRHSTQPEEVQLKHYTGSLKPEDAEVFKDSMAPGEK
Id/Imax_Average ([4]; mean of replicates): 0.993 | Id/Imax ([4]; replicate 1): 0.9971 | Id/Imax ([4]; replicate 2): 0.9951 | Id/Imax ([4]; replicate 3): 0.999 | Id/Imax ([4]; replicate 4): 0.9588 | Id/Imax ([4]; replicate 5): 0.9972 | Id/Imax ([4]; replicate 6): 0.9943 | Id/Imax ([4]; replicate 7): 0.9968 | Id/Imax ([4]; replicate 8): 0.9956 | Id/Imax ([4]; replicate 9): 0.9982 | Id/Imax ([4]; replicate 10): 0.9979

B3: mV1 C-terminal peptide (Pep_30) (peptide)
peptide: PEEVQLKHYTGSLKPEDAEVFKDSMAPGEK
notes: last 30 residues of mouse TRPV1 (mV1); The text ties the SPR and the pipette experiment to 'a 30-amino-acid' C-terminal peptide; Pep_30 is the only printed peptide of that length from mV1; also called mC peptide; C-terminal peptides (a 30-amino-acid molecule); source: synthetic peptide
Kd [5]: 3 nM | Kd [6]: 140 nM

B4: C terminus of mV1: C-terminal region of mV1 (mC, 688N-839K), co-expressed plasmid (protein)
chain: NKIAQESKNIWKLQRAITILDTEKSFLKCMRKAFRSGKLLQVGFTPDGKDDFRWCFRVDEVNWTTWNTNVGIINEDPGNCEGVKRTLSFSLRSGRVSGRNWKNFALVPLLRDASTRDRHSTQPEEVQLKHYTGSLKPEDAEVFKDSMAPGEK
modifications: left off: eGFP (from the vector pEGFP-N1), end not stated, state not stated
notes: C-terminal region of mV1 (mC, 688N-839K), co-expressed plasmid
inhibition of Dh of mV1 ([2]; co-expression with C-terminal region): largely inhibited
